Our source for the IC50 values is patent US8450317B2, “CXCR3 receptor antagonists” (Boehringer Ingelheim International GmbH, priority 2009, dated 2013).

In the assay the target is CXCR3 (Macaca fascicularis, UniProt A0A2K5UV19). Description: functional cellular assay measuring calcium flux in CXCR3 transfected cells (block of CXCR3/IP-10 interaction). The format is cell-based, Cyno. The conditions noted are these: IP-10 induced intracellular calcium flux; Cyno-CHO cells stably expressing recombinant CXCR3 and G-alpha-16; IP-10 at EC80; read-out: IC50. How it is done:
Compounds are assessed for the ability to block the interaction of CXCR3 and IP-10 in a functional cellular assay measuring calcium flux in CXCR3 transfected cells.
Cyno-CHO cells, stably expressing recombinant CXCR3 and G-alpha-16 are grown in F12 medium (Mediatech #45000-360) supplemented with 10% (V/V) FBS (Mediatech #35-01500), 1% Geneticin (Invitrogen #10131-027) and 0.2% Zeocin (Invitrogen #R250-05). The cells are spun down and re-suspended in growth media to a concentration of […]. 25 microL of cell suspension is added to each well of a BD-384-well TC treated plate, providing 12,000 cells/well. The plate is incubated at 37° C./5% CO2 overnight. On the day of the assay, the plates are removed, the media is flicked out and 25 microL of Ca-4 dye in assay buffer (HBSS, 10 mM HEPES ph 7.4), containing 2 mM probenacid is added to each well. The cell assay plates are then incubated at 37° C./5% CO2 for one hour.
Test compounds are dissolved in DMSO and diluted to 1.045 mM in DMSO. Just prior to assay, 2.75 microL of appropriately diluted test compound are added to each well of a 384 well plate containing 45 microL of HBSS buffer. After mixing, 5 microL of diluted compound are added to each well of the cell assay plate for a final assay concentration of 10 microM. The plate is incubated at room temperature for 15 min. 10 microL of IP-10 stock solution in HBSS (4× EC80 concentration) are added to each well of the cell assay plate except those cells reserved as blank wells containing buffer only. Intracellular calcium flux is recorded on the HAMAMTSU FDSS6000, using excitation at 480 nm and emission at 540 nm. Data are analyzed using Activity Base software.
In general, the preferred potency range (IC50) of compounds in the above assay is between 1 nM to 3 μM, and the most preferred potency range is 1 nM to 200 nM.

What is called IC50 is the midpoint of a concentration-inhibition curve.

Sequence of CXCR3 (A0A2K5UV19 entry or part of it): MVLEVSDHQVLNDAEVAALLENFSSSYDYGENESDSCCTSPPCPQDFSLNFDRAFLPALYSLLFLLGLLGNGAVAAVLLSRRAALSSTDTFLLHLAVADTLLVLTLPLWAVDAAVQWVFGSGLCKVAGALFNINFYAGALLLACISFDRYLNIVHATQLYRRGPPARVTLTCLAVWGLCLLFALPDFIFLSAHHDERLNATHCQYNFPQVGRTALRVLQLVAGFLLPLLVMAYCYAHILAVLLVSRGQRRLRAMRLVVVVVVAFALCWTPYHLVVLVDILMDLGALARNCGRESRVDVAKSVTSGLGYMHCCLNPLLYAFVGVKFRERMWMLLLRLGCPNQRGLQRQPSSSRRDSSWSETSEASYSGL

Take `CC1CN(c2ccc(C(F)(F)F)cc2-c2cnc(S(C)(=O)=O)nc2)CCN1C(=O)Cn1cnc2cccnc21` (stereo not shown) [2-(3H-imidazo[4,5-b]pyridin-3-yl)-1-(2-methyl-4-{2-[2-(methylsulfonyl)pyrimidin-5-yl]-4-(trifluoromethyl)phenyl}piperazin-1-yl)ethanone]: the half-maximal inhibitory concentration (IC50) is 189 nM. Take `O=C(CN1Cc2ccccc2C1=O)N1CCN(c2ccc(F)cc2-c2cnc(N3CCC(O)CC3)nc2)CC1` [2-[2-(4-{4-fluoro-2-[2-(4-hydroxypiperidin-1-yl)pyrimidin-5-yl]phenyl}piperazin-1-yl)-2-oxoethyl]-2,3-dihydro-1H-isoindol-1-one]: the IC50 was 9 nM. The figure for `CSc1ncc(-c2cc(C(F)(F)F)ccc2N2CCN(C(=O)Cn3nc(C)cc3C)CC2)cn1` [2-(3,5-Dimethyl-pyrazol-1-yl)-1-{4-[2-(2-methylsulfanyl-pyrimidin-5-yl)-4-trifluoromethyl-phenyl]-piperazin-1-yl}-ethanone] is 5 nM; for `Cc1cc(C)n(CC(=O)N2CCN(c3ccc(F)cc3-c3cnc(S(C)(=O)=O)nc3)CC2)n1` [2-(3,5-dimethyl-1H-pyrazol-1-yl)-1-(4-{4-fluoro-2-[2-(methylsulfonyl)pyrimidin-5-yl]phenyl}piperazin-1-yl)ethanone] it is 278 nM.

For the compound `Cc1cn(CC(=O)N2CCN(c3ccccc3-c3ccc(C#N)nc3)CC2)c(C)n1` [5-(2-{4-[2-(2,4-Dimethyl-imidazol-1-yl)-acetyl]-piperazin-1-yl}-phenyl)-pyridine-2-carbonitrile], the IC50 worked out at 47 nM. For `Cc1cc(C)n(CC(=O)N2CCN(c3ccccc3-c3cnc(N4CCCCC4)nc3)CC2)n1` [2-(3,5-Dimethyl-pyrazol-1-yl)-1-{4-[2-(2-piperidin-1-yl-pyrimidin-5-yl)-phenyl]-piperazin-1-yl}-ethanone], the IC50 worked out at 7 nM. `CC1CN(c2ccccc2-c2cnc(S(C)(=O)=O)nc2)CCN1C(=O)Cn1ccc2cccnc21` (stereo not shown) [1-(2-methyl-4-{2-[2-(methylsulfonyl)pyrimidin-5-yl]phenyl}piperazin-1-yl)-2-(1H-pyrrolo[2,3-b]pyridin-1-yl)ethanone]: the IC50 was found to be 27 nM.

As for `COc1cc(NC(=O)c2cc(F)ccc2N2CCN(C(=O)Cn3ccc4ccncc43)[C@@H](C)C2)ccn1` [5-fluoro-N-(2-methoxypyridin-4-yl)-2-[(3S)-3-methyl-4-(1H-pyrrolo[2,3-c]pyridin-1-ylacetyl)piperazin-1-yl]benzamide], the IC50 amounted to 6 nM. For the compound `CC1CN(c2ccccc2-c2cnc(N3CCC(S(C)(=O)=O)CC3)nc2)CCN1C(=O)Cn1ccc2ccncc21` (stereo not shown) [1-[2-methyl-4-(2-{2-[4-(methylsulfonyl)piperidin-1-yl]pyrimidin-5-yl}phenyl)piperazin-1-yl]-2-(1H-pyrrolo[2,3-c]pyridin-1-yl)ethanone], the IC50 was 8 nM. Take `COc1ncc(-c2cc(F)ccc2N2CCN(C(=O)Cn3cnc4cccnc43)CC2)cn1` [1-{4-[4-fluoro-2-(2-methoxypyrimidin-5-yl)phenyl]piperazin-1-yl}-2-(3H-imidazo[4,5-b]pyridin-3-yl)ethanone]: the IC50 stood at 53 nM. As to `CNc1ncc(-c2cc(C(F)(F)F)ccc2N2CCN(C(=O)Cn3nc(C)cc3C)CC2)cn1` [2-(3,5-Dimethyl-pyrazol-1-yl)-1-{4-[2-(2-methylamino-pyrimidin-5-yl)-4-trifluoromethyl-phenyl]-piperazin-1-yl}-ethanone], the IC50 was 7 nM. Consider `COc1cccc(-c2ccccc2N2CCN(C(=O)Cn3nc(C)cc3C)CC2)c1` [2-(3,5-Dimethyl-pyrazol-1-yl)-1-[4-(3′-methoxy-biphenyl-2-yl)-piperazin-1-yl]-ethanone], for which the IC50 is 56 nM. Turning to `CC1CN(c2ccc(C(F)(F)F)cc2-c2cnc(N3CCC(O)CC3)nc2)CCN1C(=O)Cn1ccc2cccnc21` (stereo not shown) [1-(4-{2-[2-(4-hydroxypiperidin-1-yl)pyrimidin-5-yl]-4-(trifluoromethyl)phenyl}-2-methylpiperazin-1-yl)-2-(1H-pyrrolo[2,3-b]pyridin-1-yl)ethanone], the IC50 is 10 nM. Take `COc1ncc(-c2ccccc2N2CCN(C(=O)Cn3ccc4ccncc43)CC2)cn1` [1-{4-[2-(2-Methoxy-pyrimidin-5-yl)-phenyl]-piperazin-1-yl}-2-pyrrolo[2,3-c]pyridin-1-yl-ethanone]: the IC50 came to 9 nM. Take `O=C(Cn1ccc2cccnc21)N1CCN(c2ccc(C(F)(F)F)cc2-c2cnc(N3CCOCC3)nc2)CC1` [1-{4-[2-(2-Morpholin-4-yl-pyrimidin-5-yl)-4-trifluoromethyl-phenyl]-piperazin-1-yl}-2-pyrrolo[2,3-b]pyridin-1-yl-ethanone]: the IC50 is 15 nM. On to `CC1CN(c2ccc(C(F)(F)F)cc2-c2cnc(N3CCC(S(C)(=O)=O)CC3)nc2)CCN1C(=O)Cn1c(=O)[nH]c2ccccc21` (stereo not shown) [1-(2-{2-methyl-4-[2-{2-[4-(methylsulfonyl)piperidin-1-yl]pyrimidin-5-yl}-4-(trifluoromethyl)phenyl]piperazin-1-yl}-2-oxoethyl)-1,3-dihydro-2H-benzimidazol-2-one], for which the IC50 came to 8 nM. In the case of `CC1CN(c2ccccc2-c2cnc(S(C)(=O)=O)nc2)CCN1C(=O)Cn1c(=O)[nH]c2ccccc21` (stereo not shown) [1-[2-(2-methyl-4-{2-[2-(methylsulfonyl)pyrimidin-5-yl]phenyl}piperazin-1-yl)-2-oxoethyl]-1,3-dihydro-2H-benzimidazol-2-one], the IC50 is 63 nM.

As to `COc1cc(NC(=O)c2cc(F)ccc2N2CCN(C(=O)Cn3cnc4cccnc43)[C@@H](C)C2)ccn1` [5-fluoro-2-[(3S)-4-(3H-imidazo[4,5-b]pyridin-3-ylacetyl)-3-methylpiperazin-1-yl]-N-(2-methoxypyridin-4-yl)benzamide], the IC50 was 11 nM. On to `CC1CN(c2ccc(C(F)(F)F)cc2-c2cnc(N3CCC(O)CC3)nc2)CCN1C(=O)Cn1ccc2ccncc21` (stereo not shown) [1-(4-{2-[2-(4-hydroxypiperidin-1-yl)pyrimidin-5-yl]-4-(trifluoromethyl)phenyl}-2-methylpiperazin-1-yl)-2-(1H-pyrrolo[2,3-c]pyridin-1-yl)ethanone], for which the IC50 worked out at 7 nM. The figure for `CN(C)c1ncc(-c2ccccc2N2CCN(C(=O)Cn3ccc4cccnc43)CC2)cn1` [1-{4-[2-(2-Dimethylamino-pyrimidin-5-yl)-phenyl]-piperazin-1-yl}-2-pyrrolo[2,3-b]pyridin-1-yl-ethanone] is 6 nM; for `CC1CN(c2ccc(F)cc2-c2cnc(S(C)(=O)=O)nc2)CCN1C(=O)Cn1ccc2cccnc21` (stereo not shown) [1-(4-{4-fluoro-2-[2-(methylsulfonyl)pyrimidin-5-yl]phenyl}-2-methylpiperazin-1-yl)-2-(1H-pyrrolo[2,3-b]pyridin-1-yl)ethanone] it is 48 nM; for `O=C(Cn1ccc2cccnc21)N1CCN(c2ccc(F)cc2-c2cnc(N3CCC(O)CC3)nc2)CC1` [1-(4-{4-fluoro-2-[2-(4-hydroxypiperidin-1-yl)pyrimidin-5-yl]phenyl}piperazin-1-yl)-2-(1H-pyrrolo[2,3-b]pyridin-1-yl)ethanone] it is 8 nM. `Cc1cc(C)n(CC(=O)N2CCN(c3ccccc3-c3cnc(N4CCC(F)CC4)nc3)CC2)n1` [2-(3,5-Dimethyl-pyrazol-1-yl)-1-(4-{2-[2-(4-fluoro-piperidin-1-yl)-pyrimidin-5-yl]-phenyl}-piperazin-1-yl)-ethanone]: the IC50 came out at 10 nM. As for `COc1ncc(-c2ccccc2N2CCN(C(=O)CN3Cc4ccccc4C3=O)CC2)cn1` [2-(2-{4-[2-(2-Methoxy-pyrimidin-5-yl)-phenyl]-piperazin-1-yl}-2-oxo-ethyl)-2,3-dihydro-isoindol-1-one], the IC50 came out at 17 nM. On to `CC1CN(c2ccc(F)cc2-c2cnc(N3CCC(S(C)(=O)=O)CC3)nc2)CCN1C(=O)Cn1cnc2cccnc21` (stereo not shown) [1-[4-(4-fluoro-2-{2-[4-(methylsulfonyl)piperidin-1-yl]pyrimidin-5-yl}phenyl)-2-methylpiperazin-1-yl]-2-(3H-imidazo[4,5-b]pyridin-3-yl)ethanone], for which the IC50 came out at 13 nM. Take `COc1ncc(-c2cc(F)ccc2N2CCN(C(=O)CN3CCCCC3=O)CC2)cn1` [1-(2-{4-[4-fluoro-2-(2-methoxypyrimidin-5-yl)phenyl]piperazin-1-yl}-2-oxoethyl)piperidin-2-one]: the IC50 amounted to 174 nM. With `CC1CN(c2ccc(F)cc2-c2cnc(N3CCC(S(C)(=O)=O)CC3)nc2)CCN1C(=O)Cn1ccc2ccncc21` (stereo not shown) [1-[4-(4-fluoro-2-{2-[4-(methylsulfonyl)piperidin-1-yl]pyrimidin-5-yl}phenyl)-2-methylpiperazin-1-yl]-2-(1H-pyrrolo[2,3-c]pyridin-1-yl)ethanone], the IC50 was 8 nM.

For the compound `O=C(Cn1cnc2cccnc21)N1CCN(c2ccc(F)cc2-c2cnc(N3CCCC3)nc2)CC1` [1-(4-{4-fluoro-2-[2-(pyrrolidin-1-yl)pyrimidin-5-yl]phenyl}piperazin-1-yl)-2-(3H-imidazo[4,5-b]pyridin-3-yl)ethanone], the IC50 worked out at 14 nM.
